Test results as given in patent publication US11447466B2, “Substituted indole compounds useful as inhibitors of TLR7/8/9” (BRISTOL-MYERS SQUIBB COMPANY, priority 2017, dated 2022).

Columns and labels:
Assay type in all cases: cell-based
[1] = molecular target: T1, human TLR8 (Homo sapiens, UniProt Q9NR97); assay: TLR8 inhibition reporter assay (HEK-Blue SEAP reporter, R848 stimulation); conditions: HEK-Blue cells overexpressing human TLR8, SEAP reporter, R848 15.9 μM, 22 hour incubation
T1 construct: host or cells: HEK-Blue cells
T1 sequence (Q9NR97 27-1041): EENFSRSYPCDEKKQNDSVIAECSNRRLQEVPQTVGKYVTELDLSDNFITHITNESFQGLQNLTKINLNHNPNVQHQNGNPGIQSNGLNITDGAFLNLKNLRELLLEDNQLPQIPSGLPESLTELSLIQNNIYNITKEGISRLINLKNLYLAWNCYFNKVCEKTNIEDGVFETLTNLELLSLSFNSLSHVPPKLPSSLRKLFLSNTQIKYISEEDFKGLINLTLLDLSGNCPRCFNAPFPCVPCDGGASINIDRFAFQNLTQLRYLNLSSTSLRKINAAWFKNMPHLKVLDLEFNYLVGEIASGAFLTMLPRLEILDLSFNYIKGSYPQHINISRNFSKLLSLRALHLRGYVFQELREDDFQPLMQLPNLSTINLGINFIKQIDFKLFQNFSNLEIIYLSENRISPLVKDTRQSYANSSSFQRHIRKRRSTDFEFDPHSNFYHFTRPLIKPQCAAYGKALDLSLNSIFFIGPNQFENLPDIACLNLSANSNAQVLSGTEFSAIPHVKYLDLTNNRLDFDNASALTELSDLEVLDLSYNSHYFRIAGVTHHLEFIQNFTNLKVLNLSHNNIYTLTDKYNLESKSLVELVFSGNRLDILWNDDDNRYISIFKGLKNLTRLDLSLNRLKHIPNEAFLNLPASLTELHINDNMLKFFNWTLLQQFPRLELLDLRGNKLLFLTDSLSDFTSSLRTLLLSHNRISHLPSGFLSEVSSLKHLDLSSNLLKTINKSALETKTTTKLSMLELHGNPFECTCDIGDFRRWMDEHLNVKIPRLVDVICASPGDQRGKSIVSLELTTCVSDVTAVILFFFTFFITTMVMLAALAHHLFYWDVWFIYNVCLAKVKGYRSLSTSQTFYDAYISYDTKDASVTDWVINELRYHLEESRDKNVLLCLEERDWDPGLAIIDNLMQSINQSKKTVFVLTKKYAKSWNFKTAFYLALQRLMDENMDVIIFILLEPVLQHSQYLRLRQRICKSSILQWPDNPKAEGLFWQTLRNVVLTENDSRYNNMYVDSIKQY
Outline: (§1)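 HEK-Blue cells overexpressing human TLR7, TLR8 or TLR9 carry a SEAP reporter driven by NF-κB/AP-1 sites. Compounds (0.05 nM–50 μM) were preincubated 30 min at room temperature, then cells were stimulated with gardiquimod 7.5 μM (TLR7), R848 15.9 μM (TLR8) or ODN2006 5 nM (TLR9) for 22 h at 37 °C.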

[2] = molecular target: T2, human TLR7 (Homo sapiens, UniProt Q9NYK1); assay: TLR7 inhibition reporter assay (HEK-Blue SEAP reporter, gardiquimod stimulation); conditions: HEK-Blue cells overexpressing human TLR7, SEAP reporter, gardiquimod 7.5 μM, 22 hour incubation
T2 construct: host or cells: HEK-Blue cells
T2 sequence (Q9NYK1 27-1049): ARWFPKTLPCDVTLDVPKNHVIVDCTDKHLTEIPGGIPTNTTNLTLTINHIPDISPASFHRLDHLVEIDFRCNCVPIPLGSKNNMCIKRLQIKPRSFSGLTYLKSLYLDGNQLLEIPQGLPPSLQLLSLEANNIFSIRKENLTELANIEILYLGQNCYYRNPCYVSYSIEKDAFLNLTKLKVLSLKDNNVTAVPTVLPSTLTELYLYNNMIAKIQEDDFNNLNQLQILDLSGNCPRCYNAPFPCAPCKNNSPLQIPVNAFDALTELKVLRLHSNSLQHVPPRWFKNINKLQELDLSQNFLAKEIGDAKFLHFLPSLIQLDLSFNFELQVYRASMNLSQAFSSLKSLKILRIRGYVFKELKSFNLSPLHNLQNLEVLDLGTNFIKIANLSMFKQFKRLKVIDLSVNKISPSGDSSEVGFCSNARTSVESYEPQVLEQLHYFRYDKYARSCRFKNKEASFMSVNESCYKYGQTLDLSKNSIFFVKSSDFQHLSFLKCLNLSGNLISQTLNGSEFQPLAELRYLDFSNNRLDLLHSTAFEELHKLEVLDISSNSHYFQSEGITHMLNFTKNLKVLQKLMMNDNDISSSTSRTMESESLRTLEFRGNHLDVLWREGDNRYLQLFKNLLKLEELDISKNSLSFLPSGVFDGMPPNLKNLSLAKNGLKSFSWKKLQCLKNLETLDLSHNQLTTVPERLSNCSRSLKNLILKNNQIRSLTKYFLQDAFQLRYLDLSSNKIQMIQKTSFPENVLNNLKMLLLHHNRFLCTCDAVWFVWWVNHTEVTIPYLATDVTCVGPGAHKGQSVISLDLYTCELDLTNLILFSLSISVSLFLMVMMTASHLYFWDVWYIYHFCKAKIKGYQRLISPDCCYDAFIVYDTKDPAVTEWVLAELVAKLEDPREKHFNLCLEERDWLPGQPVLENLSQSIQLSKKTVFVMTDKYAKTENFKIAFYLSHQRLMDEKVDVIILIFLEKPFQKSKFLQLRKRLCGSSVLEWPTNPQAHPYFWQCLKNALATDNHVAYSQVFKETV
Outline: as §1

[3] = molecular target: T3, human TLR9 (Homo sapiens, UniProt Q9NR96); assay: TLR9 inhibition reporter assay (HEK-Blue SEAP reporter, ODN2006 stimulation); conditions: HEK-Blue cells overexpressing human TLR9, SEAP reporter, ODN2006 5 nM, 22 hour incubation
T3 construct: host or cells: HEK-Blue cells
T3 sequence (Q9NR96 26-1032): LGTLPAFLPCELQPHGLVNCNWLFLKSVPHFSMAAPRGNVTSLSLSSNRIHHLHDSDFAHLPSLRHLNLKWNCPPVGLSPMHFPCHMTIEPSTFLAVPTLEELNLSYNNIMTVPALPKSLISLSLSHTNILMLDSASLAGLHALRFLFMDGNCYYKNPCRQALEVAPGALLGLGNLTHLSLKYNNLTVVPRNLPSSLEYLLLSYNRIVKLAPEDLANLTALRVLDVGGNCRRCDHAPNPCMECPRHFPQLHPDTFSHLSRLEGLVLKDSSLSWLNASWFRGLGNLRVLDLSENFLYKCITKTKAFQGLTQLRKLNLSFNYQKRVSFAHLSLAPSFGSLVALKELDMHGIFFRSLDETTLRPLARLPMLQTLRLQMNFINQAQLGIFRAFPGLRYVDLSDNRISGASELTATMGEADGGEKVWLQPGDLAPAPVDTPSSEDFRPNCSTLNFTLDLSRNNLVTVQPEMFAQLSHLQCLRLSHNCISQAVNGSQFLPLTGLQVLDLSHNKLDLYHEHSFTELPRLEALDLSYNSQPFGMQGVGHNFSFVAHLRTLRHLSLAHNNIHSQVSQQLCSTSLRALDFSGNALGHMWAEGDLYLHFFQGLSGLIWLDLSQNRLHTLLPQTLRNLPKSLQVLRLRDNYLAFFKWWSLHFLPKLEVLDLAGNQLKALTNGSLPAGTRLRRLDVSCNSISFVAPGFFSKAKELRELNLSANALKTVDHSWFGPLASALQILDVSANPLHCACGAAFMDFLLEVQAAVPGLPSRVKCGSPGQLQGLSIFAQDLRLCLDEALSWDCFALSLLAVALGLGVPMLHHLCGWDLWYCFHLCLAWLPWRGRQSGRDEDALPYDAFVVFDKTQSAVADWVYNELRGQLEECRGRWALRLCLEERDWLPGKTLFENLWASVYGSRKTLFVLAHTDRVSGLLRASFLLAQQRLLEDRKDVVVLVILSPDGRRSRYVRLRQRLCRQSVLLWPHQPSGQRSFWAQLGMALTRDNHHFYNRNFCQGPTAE
Outline: as §1

Row | IC50 [1] [µM] | IC50 [2] [µM] | IC50 [3] [µM] | Structure (SMILES)
1 | 0.0151 | 0.009 | 25.5 | CCn1cc(-c2[nH]c3ccc(C4CCN(CC(=O)NC)CC4)cc3c2C(C)C)cc(C)c1=O [Example 132, 2-(4-(2-(1-ethyl-5-methyl-6-oxo-1,6-dihydropyridin-3-yl)-3-isopropyl-1H-indol-5-yl)piperidin-1-yl)-N-methylacetamide]
2 | 0.148 | 0.169 | 21.3 | CNC(C)(C)C(=O)N1CCC(c2ccc3[nH]c(-c4cc(C)c(=O)n(C)c4)c(C(C)C)c3c2)CC1 [Example 298, 5-(3-isopropyl-5-(1-(2-methyl-2-(methylamino)propanoyl)piperidin-4-yl)-1H-indol-2-yl)-1,3-dimethylpyridin-2(1H)-one]
3 | 0.0198 | 0.181 | 2.1 | Cc1c(-c2[nH]c3ccc(C4CCN(C(C)C)CC4)cc3c2C(C)C)cn(C)c(=O)c1-c1cccnc1 [Example 237, 5-(3-isopropyl-5-(1-isopropylpiperidin-4-yl)-1H-indol-2-yl)-1,4-dimethyl-[3,3′-bipyridin]-2(1H)-one]
4 | 0.0118 | 0.0072 | 8.33 | Cc1c(-c2[nH]c3ccc(C4CCN(C(C)C)CC4)cc3c2C(C)C)cn(C)c(=O)c1Cl [Example 238, 3-chloro-5-(3-isopropyl-5-(1-isopropylpiperidin-4-yl)-1H-indol-2-yl)-1,4-dimethylpyridin-2(1H)-one]
5 | 0.18 | 0.333 | ≥ 50 | CC(C)c1c(-c2cc(C(=O)N3CCCC3)c(=O)n(C)c2)[nH]c2ccc(C3CCNCC3)cc12 [Example 69, 5-(3-isopropyl-5-(piperidin-4-yl)-1H-indol-2-yl)-1-methyl-3-(pyrrolidine-1-carbonyl) pyridin-2(1H)-one]
6 | 0.0286 | 0.0072 | 13.6 | COCc1cc(-c2[nH]c3ccc(C4CCN(C(C)C)CC4)cc3c2C(C)C)cn(C)c1=O [Example 347, 5-(3-isopropyl-5-(1-isopropylpiperidin-4-yl)-1H-indol-2-yl)-3-(methoxymethyl)-1-methylpyridin-2(1H)-one]
7 | 0.0397 | 0.0478 | 21.9 | CNC(=O)CN1CCC(c2ccc3[nH]c(-c4cn(C)c(=O)c(OC)c4C)c(C(C)C)c3c2)CC1 [Example 140, 2-(4-(3-isopropyl-2-(5-methoxy-1,4-dimethyl-6-oxo-1,6-dihydropyridin-3-yl)-1H-indol-5-yl)piperidin-1-yl)-N-methylacetamide]
8 | 0.0026 | 0.0189 | 4.49 | Cc1c(-c2[nH]c3ccc(C4CCN(C5CCOCC5)CC4)cc3c2C(C)C)cn(C)c(=O)c1C [Example 206, 5-(3-isopropyl-5-(1-(tetrahydro-2H-pyran-4-yl)piperidin-4-yl)-1H-indol-2-yl)-1,3,4-trimethylpyridin-2(1H)-one]
9 | 0.029 | 0.0247 | 5.23 | Cc1nc(-c2[nH]c3ccc(C4CCNCC4)cc3c2C(C)C)cn(C)c1=O [Example 12, 5-(3-isopropyl-5-(piperidin-4-yl)-1H-indol-2-yl)-1,3-dimethylpyrazin-2(1H)-one]
10 | 0.0022 | 0.0043 | 3.74 | Cc1cc(-c2[nH]c3ccc(C4CCN(CC5=NN=CC5)CC4)cc3c2C(C)C)cn(C)c1=O [Example 200, 5-(5-(1-((4H-pyrazol-3-yl)methyl)piperidin-4-yl)-3-isopropyl-1H-indol-2-yl)-1,3-dimethylpyridin-2(1H)-one]
11 | 0.0755 | 0.112 | 6.73 | Cc1nc(-c2[nH]c3ccc(C4CCN(C5COC5)CC4)cc3c2C(C)C)cn(C)c1=O [Example 186, 5-(3-isopropyl-5-(1-(oxetan-3-yl)piperidin-4-yl)-1H-indol-2-yl)-1,3-dimethylpyrazin-2(1H)-one]
12 | 0.0021 | 0.0055 | 2.67 | Cc1c(-c2[nH]c3ccc(C4CCN(CC5CCOC5)CC4)cc3c2C(C)C)cn(C)c(=O)c1Cl (stereo not drawn) [Example 254, 3-chloro-5-(3-isopropyl-5-(1-((tetrahydrofuran-3-yl)methyl)piperidin-4-yl)-1H-indol-2-yl)-1,4-dimethylpyridin-2(1H)-one]
13 | 0.0031 | 0.0232 | 2.24 | CCCN1CCC(c2ccc3[nH]c(-c4cc(-c5cncnc5)c(=O)n(CC)c4)c(C(C)C)c3c2)CC1 [Example 260, 1-ethyl-5-(3-isopropyl-5-(1-propylpiperidin-4-yl)-1H-indol-2-yl)-3-(pyrimidin-5-yl)pyridin-2(1H)-one]
14 | 0.927 | 0.0135 | 6.09 | Cc1cc(-c2[nH]c3ccc(C4CCN(C)CC4)cc3c2C(C)C)cn(CCO)c1=O [Example 264, 1-(2-hydroxyethyl)-5-(3-isopropyl-5-(1-methylpiperidin-4-yl)-1H-indol-2-yl)-3-methylpyridin-2(1H)-one]
